# Test results published in US5863913A, “Aromatic compound and pharmaceutical composition” (Kureha Chemical Industry Co., Ltd., priority 1996, dated 1999).
# What was measured:
# [1] = tested on: kidney disease model rats; assay: Action to lower blood pressure in kidney disease model rats (tail cuff); format: in vivo, Sprague-Dawley female rats; conditions: systolic, average of 8 rats, 20 mg/kg with drinking water, two days after administration; control 210
# Procedure: (§1) The compounds of the present invention and the reference substance were administered with drinking water to kidney disease model rats, and the action of lowering the blood pressure was observed. The kidney disease model rats were prepared by a ligature of branches of renal artery in accordance with a conventional method. Namely, the left hilum renalis of Sprague-Dawley female rats was exposed under anesthesia, and one of four secondary branches of the renal artery was left unligated, while the remaining three branches were ligated, respectively. After a week, the hilum renalis (artery, vein, and ureter) of the right kidney were further ligated to thereby prepare rats whose renal function was lowered to approximately 1/8 of the normal function. Each group consisted of eight rats. The drugs to be tested (20 mg/kg) were administered to each administering group, and only water was administered to a control group. Two days after the administration, the systolic blood pressure was measured by the tail cuff method using a blood pressure measuring apparatus (UR5000; Ueda).
# [2] = tested on: kidney disease model rats; assay: Survival time of kidney diseased animals; format: in vivo, Sprague-Dawley female rats; conditions: 20 mg/kg/day with drinking water, observation period eight weeks (upper limit); control 5.0
# Procedure: as §1
# The kidney disease model rats were prepared as in Example 54. Twenty-two groups (8 rats per group) were prepared in a manner such that there was no major difference between the groups in the serum creatinine value and the blood urea nitrogen value indicating renal function. The rats in each group were allowed to freely take up food. […] To the rats in the control group, only water was administered every day. If kidney diseases are aggravated, the rat will die of uremia. Thus, the survival time was observed as a comprehensive indication of the improvement of the effect on the kidney diseases. The observation period was eight weeks. Thus if all rats survived, the average survival time is eight weeks, and is an upper limit.
# [3] = target: T1, angiotensin II receptor subtype 2 (AT2) (Bos taurus, UniProt G5E6F7); assay: Binding to receptors: angiotensin II receptor subtype 2 (AT2); conditions: bovine cerebellar cortex, tracer 125I-Tyr4-angiotensin II
# T1 construct: receptor : from cerebellar cortex in bovine; from tissue; host or cells: bovine cerebellar cortex
# T1 sequence (G5E6F7 1-362): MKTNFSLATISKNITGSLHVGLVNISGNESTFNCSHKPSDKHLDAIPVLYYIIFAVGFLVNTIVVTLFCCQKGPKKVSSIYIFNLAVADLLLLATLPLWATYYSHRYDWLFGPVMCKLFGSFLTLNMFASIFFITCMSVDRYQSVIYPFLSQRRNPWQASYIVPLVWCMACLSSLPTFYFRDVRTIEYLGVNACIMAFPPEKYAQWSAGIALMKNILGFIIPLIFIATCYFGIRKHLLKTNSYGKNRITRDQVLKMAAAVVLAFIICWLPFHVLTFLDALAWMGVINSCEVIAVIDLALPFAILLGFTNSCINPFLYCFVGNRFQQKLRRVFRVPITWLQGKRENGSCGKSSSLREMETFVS
# Procedure: In this Example, the affinity to the angiotensin II receptor subtype 1 or subtype 2 was evaluated by a binding assay in accordance with the method described in Biochem. Pharmacol., 33, 4057-4062 (1984).
# Specifically, the measurement of the total binding in the presence of each drug was performed as follows:
# A mixture (final volume=0.25 ml) of a drug in a given concentration (the drug was dissolved in DMSO, and diluted to a double volume with a buffer attached to a drug discovery system to prepare a sample for the assay; 0.025 ml), a tracer (0.025 ml), and receptors (0.2 ml) was incubated [in the case of the angiotensin II receptor subtype 1 (AT1), at room temperature for 3 hours, and in the case of the subtype 2 (AT2), at 37° C. for 1 hour]. Then, the reaction mixture was filtered with suction (GF/C filter was used in AT1, and GF/B filter was used in AT2). The filter papers after filtration with suction (the tracer bound to the receptors) were counted by a γ-well counter (ARC-500, Aloka). The non-specific bindings were measured by repeating the above method, except that a large excess amount of a displacer was added. The specific binding of the drug in the given concentration was calculated by subtracting the non-specific binding from the total binding, respectively.
# In AT1 and AT2, the percentages found to inhibit the bindings of radioactive ligands (tracer) to receptors by the drugs to be tested (IC50 value of concentration to show 50% inhibition, or binding inhibition % in 100 μM) were measured, using the drugs to be tested and control drugs in the given concentration.
# receptor : from cerebellar cortex in bovine
# tracer : ^125 ITyr^4angiotensin II
# control drug : angiotensin II (human)
# (displacer) : angiotensin II (human)
# [4] = tested on: kidney disease model rats; assay: Renal function indicatory value in kidney disease model rats; format: in vivo, Sprague-Dawley female rats; conditions: 20 mg/kg/day with drinking water, six weeks; for Creatinine clearance: 24 hours urine, control 0.22; for Creatinine / Blood urea nitrogen: serum; for Creatinine: control 2.0; for Blood urea nitrogen: control 100
# Procedure: as §1, with “The” for “The compounds of the present invention and the reference substance were administered with drinking water to kidney disease model rats, and the action of lowering the blood pressure was observed. The”
# The rats in each group were allowed to freely take up food. […] To the rats in the control group, only water was administered every day. After six weeks, 0.2 ml of blood was collected from the carotid artery of the rats under anesthesia, and centrifuged to obtain serum. Using 25 μl of the serum, the serum creatinine (Scr) was measured by a creatinine analytical instrument (Beckman). Using 10 μl of the serum, the blood urea nitrogen (BUN) was measured by a BUN analytical instrument (Beckman). The creatinine clearance was evaluated as follows:
# After the serum creatinine measurement, rats were placed in urinary metabolic cages for 24 hours to collect urine. A urinary creatine concentration (Ucr) was measured by a creatinine analytical instrument, and a total volume of urination (Uvol) was also measured. The creatinine clearance (CCr) was calculated by the following formula: [formula]
# [5] = tested on: ICR female mice; assay: Acute toxicity, single oral dose in mice; conditions: mouse, in vivo
# Procedure: The aromatic compounds of the formula (I) according to the present invention were orally administered to mice at the dose of 500 mg/kg, but no fatalities were observed over a period of one week.
# Five-week-old ICR female mice (5 mice per group) were bred for acclimation for a week. Then, the compounds of the present invention were dissolved in water, and orally administered to the mice in a single dosage (500 mg/kg).
Structure (SMILES),Blood Pressure [1] [mmHg],Average survival time [2] [weeks],inhibition at 100 µM [3] [%],Creatinine clearance [4] [mL/min],Creatinine [4] [mg/dL],Blood urea nitrogen [4] [mg/dL],Number of deaths/number of survivals [5]
"CCCCC(=O)N(Cc1ccc(C(=O)OCCN2CCOCC2)cc1)c1cc(C(=O)N2CCOCC2)ccc1C(C)C [Compound No. 9, 3-N-[[[4-(2'-morpholinoethoxycarbonyl)phenyl]methyl]valeramido]-i-propylbenzoic acid morpholide]",207,6.9,0,0.31,1.6,83,0/5
"CCCCCCC(=O)N(Cc1ccc(C(=O)O)cc1)c1cc(C(=O)N2CCN(CCC)CC2)ccc1C(C)C [Compound No. 20, 3-N-[[(4-carboxyphenyl)methyl]n-heptanamido]-4-i-propylbenzoic acid 4'-n-propylpiperazide]",209,7.3,0,0.32,1.3,75,0/5
"CCCCC(=O)N(Cc1ccc(C(=O)OCCN(C)C)cc1)c1cc(C(=O)N2CCOCC2)ccc1C(C)C [Compound No. 6, 3-N-[[[4-(2'-dimethylaminoethoxycarbonyl)phenyl]methyl]valeramido]-4-i-propylbenzoic acid morpholide]",209,7.0,21,0.33,1.3,75,0/5
"CCCCC(=O)N(Cc1ccc(C(=O)O)cc1)c1cc(C(=O)N2CCN(CCC)CC2)ccc1C(C)C [Compound No. 19, 3-[[(4-carboxyphenyl)methyl]valeramido]-4-i-propylbenzoic acid 4'-n-propylpiperazide]",194,7.2,18,0.33,1.3,76,0/5
"CCCCC(=O)N(Cc1ccc(C(=O)OCCCN)cc1)c1cc(C(=O)N2CCOCC2)ccc1N(C)C [Compound No. 3, 3-N-[[[4-(3'-aminopropoxycarbonyl)phenyl]methyl]valeramido]-4-dimethylaminobenzoic acid morpholide]",203,6.9,0,0.33,1.3,78,0/5
"CCCCC(=O)N(Cc1ccc(C(=O)OCCCN(C)C)cc1)c1cc(C(=O)N2CCOCC2)ccc1C(C)C [Compound No. 7, 3-N-[[[4-(3'-dimethylamino-1'-propoxycarbonyl)phenyl]methyl]valeramido]-4-i-propylbenzoic acid morpholide]",206,6.9,0,0.32,1.4,76,0/5
"CCCCCCC(=O)N(Cc1ccc(C(=O)O)cc1)c1cc(C(=O)N2CCN(C)CC2)ccc1N(C)C [Compound No. 13, 3-[[(4-carboxyohenyl)methyl]n-heptanamido]-4-dimethylaminobenzoic acid 4'-methylpiperazide]",208,6.9,0,0.32,1.5,77,0/5
"CCCCC(=O)N(Cc1ccc(C(=O)OCCCN(C)C)cc1)c1cc(C(=O)N2CCOCC2)ccc1N(C)C [Compound No. 2, 4-dimethylamino-3-N-[[[4-(3'-dimethylaminopropoxycarbonyl)phenyl]methyl]valeramido]benzoic acid morpholide]",200,6.9,0,0.33,1.3,78,0/5
"CCCCC(=O)N(Cc1ccc(C(=O)O)cc1)c1cc(C(=O)N2CCN(C)CC2)ccc1C(C)C [Compound No. 15, 3-[[(4-carboxyphenyl)methyl]valeramido]-4-i-propylbenzoic acid 4'-methylpiperazide]",200,6.1,0,0.26,1.8,90,0/5
"CCCCC(=O)N(Cc1ccc(C(=O)OCCN(CC)CC)cc1)c1cc(C(=O)N2CCOCC2)ccc1C(C)C [Compound No. 8, 3-N-[[[4-(2'-diethylaminoethoxycarbonyl)phenyl]methyl]valeramido]-4-i-propylbenzoic acid morpholide]",203,6.9,0,0.35,1.5,78,0/5
"CCCCCCC(=O)N(Cc1ccc(C(=O)O)cc1)c1cc(C(=O)N2CCN(C)CC2)ccc1C(C)C [Compound No. 18, 3-N-[[(4-carboxyphenyl)methyl]n-heptanamido]-4-i-propylbenzoic acid 4'-methylpiperazide]",210,7.0,9,0.32,1.4,76,0/5
